Common to all, as to assay: NCI-60 cell line screen, 384-well format
The subject of assay [1] is CAKI-1 renal.
For assay [2], the system named is CCRF-CEM leukemia.
Assay [3] relates to DU-145 prostate.
Assay [4] deals with HCT-116 colon.
The subject of assay [5] is HL-60(TB) leukemia.
For assay [6], the system named is K-562 leukemia.
Assay [7] has as its system LOX IMVI melanoma.
Assay [8] concerns MALME-3M melanoma.
Assay [9] has as its system MDA-MB-468 breast.
For assay [10], the system named is MOLT-4 leukemia.
Assay [11] relates to OVCAR-8 ovarian.
Assay [12] relates to RPMI-8226 leukemia.
Assay [13] relates to SK-OV-3 ovarian.
Assay [14] relates to SW-620 colon.

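Here, GI50 denotes the concentration required for 50% inhibition of growth. TGI is the concentration that stops growth completely.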

With `CN(C)/N=N/c1nc[nH]c1C(N)=O`, the GI50 in assay [1] is 34.7 µM; in assay [2], 45.5 µM; in assay [3] it was 83.8 µM; in [4] it was 66.3 µM; in assay [5], 6.42 µM; in [6], 44.6 µM. The GI50 in assay [7] is 29.2 µM; in assay [8], 79.5 µM; in assay [9], 30.4 µM; in [10], 6.9 µM; in assay [11] it was 69.9 µM; in [12] it was 18.3 µM. Besides, the values for the GI50 in assay [13] and in assay [14] were 95.3 µM and 97.4 µM, respectively. In addition, in assay [10], the TGI was determined as 21.7 µM.
